Source: patent US20230149374A1, “METHODS AND COMPOSITIONS FOR TREATING ATHEROSCLEROSIS” (Sanford Burnham Prebys Medical Discovery Institute, priority 2021, published 2023)
“Also recorded” adds a separate entry of the source.

How the values were obtained:
Format in all cases: in vivo, mouse
ApoE-deficient mice [1] = experiment: NMR metabolomics of liver and kidney extracts; conditions: 30 mg/kg/day, vs control
Text: (§1) Four cohorts of mice were used in these studies (FIGS. 8A and 9A). Cohorts 1 and 2 were devoted to the in vivo and ex vivo characterization of TNAP-associated plaque calcification. 6-week-old ApoE-deficient male mice were received at the animal facility and placed in conventional cages with 5 mice per cage. Mice were maintained on a 12-hrs light-dark cycle (7:00 am-7:00 pm) and were supplied with food and water ad libitum. From 10 weeks of age, they were fed ad libitum with a high fat diet (HFD, D12108C, Research Diets, New Brunswick, USA) containing 40% fat (kcal) and 1.25% cholesterol (weight). In cohort 1, 8 mice were sacrificed every 2 weeks between weeks 17 to 31, for histological and molecular analyses. Total body weight was measured weekly after starting the HFD. The sacrifice was done after anesthesia with isoflurane and intracardiac blood puncture by CO2 inhalation. Tissues were harvested as described below. The abdominal aorta was used for quantitative polymerase chain reaction (PCR) analyses. Mice from cohort 2 were used to analyze aorta calcification with ^18F—NaF μPET and μCT and to compare the in vivo data with the ex vivo results obtained in cohort 1. Animals were transferred from the animal facility to the Cermep imaging platform. Cohorts 3 and 4 were used to determine in vivo and ex vivo the impact of TNAP inhibition on the vasculature, liver, bones, and kidneys. […] Plaque calcification was analyzed at 25 weeks, and possible side effects of TNAP inhibition were explored in mice aged 31 weeks. […]
Liver and kidney extraction and NMR measurement: The frozen tissues were weighed and then extracted using the methanol-chloroform-water system [2:2:1.425 (v/v/v)]. […] Deuterated phosphate buffer at pH=7.4 (200 mM) was added to the dried aqueous extract with sodium 2,2,3,3-tetradeutero-3-trimethylsilylpropionate (TSP) (Sigma-Aldrich) as internal chemical shift and quantification reference. ^1H NMR spectra were recorded at 298 K on a Bruker Avance spectrometer 500 equipped with a 5-mm TCI cryoprobe. […]

ApoE-deficient mice [2] = experiment: Serum analyses (cholesterol, triglycerides, bile acids, IL-6, haptoglobin, glucose, LPS)
Text: (§2) Four cohorts of mice were used in these studies (FIGS. 8A and 9A). Cohorts 1 and 2 were devoted to the in vivo and ex vivo characterization of TNAP-associated plaque calcification. 6-week-old ApoE-deficient male mice were received at the animal facility and placed in conventional cages with 5 mice per cage. Mice were maintained on a 12-hrs light-dark cycle (7:00 am-7:00 pm) and were supplied with food and water ad libitum. From 10 weeks of age, they were fed ad libitum with a high fat diet (HFD, D12108C, Research Diets, New Brunswick, USA) containing 40% fat (kcal) and 1.25% cholesterol (weight). In cohort 1, 8 mice were sacrificed every 2 weeks between weeks 17 to 31, for histological and molecular analyses. Total body weight was measured weekly after starting the HFD. The sacrifice was done after anesthesia with isoflurane and intracardiac blood puncture by CO2 inhalation. Tissues were harvested as described below. The abdominal aorta was used for quantitative polymerase chain reaction (PCR) analyses. Mice from cohort 2 were used to analyze aorta calcification with ^18F—NaF μPET and μCT and to compare the in vivo data with the ex vivo results obtained in cohort 1. Animals were transferred from the animal facility to the Cermep imaging platform. Cohorts 3 and 4 were used to determine in vivo and ex vivo the impact of TNAP inhibition on the vasculature, liver, bones, and kidneys. According to the results obtained in cohorts 1 and 2, TNAP inhibitor SBI-425 (30 mg/kg/day, formulated as a food admixture in the HFD) was administered in a preventive manner from 10 weeks of age. Treatment was stopped at 25 weeks or 31 weeks of age. Plaque calcification was analyzed at 25 weeks, and possible side effects of TNAP inhibition were explored in mice aged 31 weeks. Mice in cohort 3 (2 groups of 13 mice) were used for ex vivo analysis, and mice in cohort 4 (2 groups of 12 mice) for in vivo imaging and ex vivo analyses.
After overnight fasting, blood was collected from mice by cardiac puncture under anesthesia with isoflurane. Serum was obtained through centrifugation of the blood for 15 min at 1,500 g at 4° C. and stored at −80° C. before analysis. Concentration of total cholesterol and triglycerides were measured using a colorimetric (MAK043, Sigma) and a fluorimetric assay (MAK266, Sigma), respectively. Total bile acids were assayed with a commercial enzyme-based colorimetric kit (Abcam Ab239702). Serum IL-6 and haptoglobin levels were determined using the commercially available ELISA kits (Fischer Scientific 10110623 and Abcam 157714, respectively). The alkaline phosphatase activity assay was performed in a 96-well plate. Briefly, sera were mixed with a concentrated buffer at a ratio of 2.85:1 (vol/vol) in order to get final concentration of 0.56 M 2-amino-2-methyl-1-propanol buffer pH 10.5, 1 mM MgCl2 and 10 mM p-nitrophenylphosphate. Absorbance was acquired for 5 min at 405 nm (Tecan plate reader). The slope was calculated to determine TNAP activity levels in each sample and normalized to protein amounts measured with the BCA protein assay (Pierce).

ApoE-deficient mice [3] = experiment: Tolerability: mortality and body weight; conditions: 30 mg/kg/day, treatment up to 21 weeks
Text: as §1, with “platform.” for “platform. Cohorts 3 and 4 were used to determine in vivo and ex vivo the impact of TNAP inhibition on the vasculature, liver, bones, and kidneys.”

ApoE-deficient mice [4] = experiment: Quantitative PCR of transcript levels in the liver; conditions: 30 mg/kg/day, 25 weeks, vs control
ApoE-deficient mice [5] = experiment: Quantitative PCR of transcript levels in the abdominal aorta; conditions: 30 mg/kg/day, 25 weeks, vs control
Text: as §2
Mouse tissues: total RNAs were extracted from grinded abdominal aorta with the NucleoSpin RNA II kit (Macherey-Nagel) following the manufacturers' protocol. The quantity and quality of RNA were determined using a NanoDrop. RNA (1 μg) was retro-transcribed into cDNA with Superscript II reverse transcriptase (Life Technologies). PCR analysis was conducted using SYBR green Supermix (Biorad) on the iCycler Real-Time Detection system (Biorad). Fold change in mRNA expression was calculated using the 2^−Δcq method by the CFX Manager software (Biorad). Data were normalized by 3 housekeeping genes (HPRT, Actin and Rpl13a) levels.

[6] = ApoE-deficient mice, 30 mg/kg/day, 25 weeks, fasting, vs control
[7] = ApoE-deficient mice, 30 mg/kg/day, 25 weeks, vs control

In the case of COc1ccc(Cl)cc1S(=O)(=O)Nc1cncc(C(N)=O)c1 [SBI-425], the kidney phosphocholine levels (ApoE-deficient mice [1]; 25 weeks) is reported as “increased”, the liver phosphocholine levels (ApoE-deficient mice [1]; 25 weeks) is reported as “decreased; also recorded: variations close to significance” and the “liver or kidney metabolism (metabolomics, PLS-DA)” value (ApoE-deficient mice [1]) is reported as “did not evidence a significant impact; also recorded: did not significantly change”. The “serum levels of cholesterol” value (ApoE-deficient mice [2]; [6]) was “significantly decreased”, the “serum levels of triglycerides (TGs)” value (ApoE-deficient mice [2]; [6]) was “significantly decreased” and the fasting glycemia (ApoE-deficient mice [2]; [7]) was “did not modulate”. The “serum IL-6 levels” value (ApoE-deficient mice [2]; [7]) was “reduced serum IL-6 levels, although not significantly”, the “serum bile acids levels” value (ApoE-deficient mice [2]; [7]) was “did not change” and the serum haptoglobin levels (ApoE-deficient mice [2]; [7]) was “nor changed”. The systemic inflammation (ApoE-deficient mice [2]; mouse experiments, administration for several months) was “did not significantly change”, the body weight (ApoE-deficient mice [3]) was “no effect; also recorded: did not significantly change” and the mortality (ApoE-deficient mice [3]) was “no effect”. For the same molecule, the “Abcg8 transcript level, liver” value (ApoE-deficient mice [4]) was “did not change”, the “Cyp7a1 transcript level, liver” value (ApoE-deficient mice [4]) was “did not change” and the “Cyp7b1 transcript level, liver” value (ApoE-deficient mice [4]) was “did not change”. For the same molecule, the “Fas transcript level (fatty acid synthesis), liver” value (ApoE-deficient mice [4]) was “nor were the levels of transcripts associated with fatty acid synthesis (Srebp1c, Fas) (FIGS. 6B-6G) changed”, the “Hmgcr transcript level, liver” value (ApoE-deficient mice [4]) was “did not change” and the “Hp transcript level (liver inflammation)” value (ApoE-deficient mice [4]) was “unchanged”. The “Il1b transcript level (liver inflammation)” value (ApoE-deficient mice [4]) was “unchanged”, the “Ly6g transcript level (liver inflammation)” value (ApoE-deficient mice [4]) was “unchanged” and the “Scarb1 transcript level, liver” value (ApoE-deficient mice [4]) was “did not change”. The “Srebp1c transcript level (fatty acid synthesis), liver” value (ApoE-deficient mice [4]) was “nor were the levels of transcripts associated with fatty acid synthesis (Srebp1c, Fas) (FIGS. 6B-6G) changed”, the “Tnfa transcript level (liver inflammation)” value (ApoE-deficient mice [4]) was “unchanged” and the “Acan transcript level (chondrocyte marker), abdominal aorta” value (ApoE-deficient mice [5]) was “not accompanied by reduced levels”. The “Alpl transcript level (chondrocyte marker), abdominal aorta” value (ApoE-deficient mice [5]) was “not accompanied by reduced levels”, the “Cd68 transcript level (inflammatory marker), abdominal aorta” value (ApoE-deficient mice [5]) was “significantly decreased” and the “Il6 transcript level (inflammatory marker), abdominal aorta” value (ApoE-deficient mice [5]) was “significantly decreased”. For the same molecule, the “Il8 transcript level (inflammatory marker), abdominal aorta” value (ApoE-deficient mice [5]) was “significantly decreased”, the “Opn transcript level (inflammatory marker), abdominal aorta” value (ApoE-deficient mice [5]) was “significantly decreased” and the “Rankl transcript level (inflammatory marker), abdominal aorta” value (ApoE-deficient mice [5]) was “significantly decreased”. The “Runx2 transcript level (chondrocyte marker), abdominal aorta” value (ApoE-deficient mice [5]) was “not accompanied by reduced levels” and the “Sox9 transcript level (chondrocyte marker), abdominal aorta” value (ApoE-deficient mice [5]) was “not accompanied by reduced levels”.
